Key:
[1] = tested on: phosphorylation of myosin regulatory light chain; assay: Inhibitory action on phosphorylation of myosin regulatory light chain (Test Example 1); assay type: cell-based; settings: Neutrophil, 5 min; human peripheral blood neutrophils, 25° C. for 5 minutes; read-out: IC50, compound concentration providing a phosphorylation inhibition ratio of 50% (myosin regulatory light chain)
Description: A volume of 50 to 100 ml of peripheral blood collected from healthy volunteers was centrifuged by using Mono-Poly separator solution (Dainippon Pharmaceutical) to prepare a neutrophil containing fraction. The neutrophils were washed with PBS(−) and resuspended in Hanks' Balanced Salt Solution (HBSS+, Gibco) to prepare a cell suspension (8×10^6/ml). The cell suspension was diluted to 5×10^6/ml, introduced into Eppendorf tubes in a volume of 0.4 ml each, then 0.1 ml each of solutions of a test compound at various concentrations were added to the suspension and allowed to react at 25° C. for 5 minutes. After the reaction, 0.1 ml of trichloroacetic acid solution was added to each reaction mixture, the reaction mixture was gently shaken and centrifuged at 12,000 rpm (4° C., 5 minutes), and the supernatant was removed. Subsequently, 3 μl of 1 M Tris solution was added to the residue, the mixture was further mixed with 50 μl of extraction buffer (8 M urea, 0.02% 2-mercaptoethanol, 0.002% bromophenol blue) and left stand at room temperature for 1 hour. Then, the reaction mixture was loaded on a spin column (0.45 μm, Millipore) to remove the insoluble solids and a sample buffer for SDS polyacrylamide gel electrophoresis (25 mM, Tris-HCl pH 6.8, 2.5% 2-mercaptoethanol, 2% sodium dodecylsulfate, 5% sucrose, 0.002% bromophenol blue as final concentrations) was added, and 10 μl of each sample was subjected to electrophoresis.
The gel after the electrophoresis was blotted on a nitrocellulose membrane (BioRad), blocked with 5% skim milk, and reacted successively with antibodies pLC1 (Sakurada K. et al, Am. J. Physiol., 274, C1563-C1572 (1998)), which specifically recognize the phosphorylated myosin regulatory light chain, and donkey anti-mouse IgG (Chemicon) conjugated with horseradish peroxidase. The band of the phosphorylated myosin regulatory light chain was detected on a film by using ECL Plus Kit (Amersham Pharmacia Biotech). This band was subjected to quantification using a densitometer. By using this value, the inhibitory ratio (%) for phosphorylation of the myosin regulatory light chain was calculated by using the following equation. Phosphorylation inhibition ratio(%)=1−(Band intensity of phosphorylated myosin regulatory light chain with addition of the test compound/Band intensity of phosphorylated myosin regulatory light chain without addition of the test compound)×100
Further, the phosphorylation inhibition ratio was calculated with changing the concentrations of the test compound, and a compound concentration providing an inhibition ratio of 50% was obtained as IC50.

[2] = tested on: rabbit normal intraocular pressure; assay: Intraocular pressure reducing action (Test Example 2); assay type: in vivo, Japanese white rabbit; settings: Oryctolagus cuniculus, topical; 3 mM aqueous solution, 50 μl to the left eye; measured after 2, 4 and 6 hours; read-out: intraocular pressure reducing degree (max ΔIOP / intraocular pressure value immediately before administration × 100)
Description: A Japanese white rabbit having a body weight of about 2 kg was placed in a positioner and naturalized for one week before the experiment. An opthalmologic local anesthesant (Benoxil) was administered to both eyes, and then intraocular pressure was measured by using a tonometer (Classic 30, Solan). A 3 mM aqueous solution of a test compound was administered in a volume of 50 μl to the left eye, and the right eye was not treated (control eye). The intraocular pressure values were measured for the left and right eyes immediately before, and 2, 4 and 6 hours after the administration of the aqueous solution of the test compound, and the difference of the measured values for the left and right eyes was considered an intraocular pressure reduction value of the test medicament at each measurement time. The largest difference of the values for the left and right eyes among the measured values at the measurement times (after 2, 4 and 6 hours) was considered the maximum intraocular pressure reduction value (max ΔIOP) of each test medicament. The intraocular pressure reducing degree representing the intraocular pressure reducing action of each test medicament was calculated according to the following formula. Since rabbits show significant daily variation of intraocular pressure, daily variation is added when change of intraocular pressure is measured over time, and the intraocular pressure reducing action may be overestimated. Therefore, we used this calculation method of intraocular pressure reduction value in order to minimize the influence of the variation. Intraocular pressure reducing degree (%)=(max ΔIOP/Intraocular pressure value immediately before administration)×100

[3] = tested on: rabbit intraocular pressure; assay: Rabbit intraocular pressure reduction enhancing action, combination with timolol maleate (Test Example 6-2); assay type: in vivo, Japanese white rabbit; settings: 0.01 weight % 19-1 compound aqueous solution and/or timolol maleate (Timoptol), 50 μL; difference relative to the control group, 1, 2 and 4 hours
Description: As a test compound, the 19-1 compound was dissolved in physiological saline, and the solution was neutralized by addition of sodium hydroxide (pH 7.0 to 8.0) to prepare a 0.01 weight % aqueous solution (19-1 compound aqueous solution). As a drug for combination use, timolol maleate (trade name: Timoptol, Santen Pharmaceutical) was used as an adrenergic receptor β blocker, as the marketed formulation as it was.
A Japanese white rabbit having a body weight of about 2 kg was placed in a positioner and naturalized for one week before the experiment. An opthalmologic local anesthesant (Benoxil) was administered to both eyes, and then intraocular pressure before instillation was measured by using a tonometer (Classic 30, Solan). […] The intraocular pressure thereafter was measured for each group 1, 2 and 4 hours after the second administration of the test compound, and the difference of the measured values at each measurement time for the each group and the control group was considered an intraocular pressure reduction value of each group. The largest difference of the intraocular pressure values relative to the control group among those of the measured values of the measurement times was considered the maximum intraocular pressure reduction value (max ΔIOP) of each drug group.

IC50 [1]: < 10 µM
SMILES: N[C@H]1CCN(S(=O)(=O)c2cccc3cncc(Cl)c23)C1 [Example 19-1, (S)-3-Amino-1-(4-chloro-5-isoquinolinesulfonyl)pyrrolidine]
inhibition in vivo at 3000 µM [2]: ≥ 20% | Max ΔIOP (maximum intraocular pressure reduction value), Table 4 [3]: 4.1 mmHg
